The target in experiment [1] is T1, glucosylceramide synthase (GCS) (Homo sapiens, UniProt Q16739).
T1 construct: The obtained supernatant was used; host or cells: A549 cells (lysate supernatant after sonication)
T1 sequence (Q16739 1-394): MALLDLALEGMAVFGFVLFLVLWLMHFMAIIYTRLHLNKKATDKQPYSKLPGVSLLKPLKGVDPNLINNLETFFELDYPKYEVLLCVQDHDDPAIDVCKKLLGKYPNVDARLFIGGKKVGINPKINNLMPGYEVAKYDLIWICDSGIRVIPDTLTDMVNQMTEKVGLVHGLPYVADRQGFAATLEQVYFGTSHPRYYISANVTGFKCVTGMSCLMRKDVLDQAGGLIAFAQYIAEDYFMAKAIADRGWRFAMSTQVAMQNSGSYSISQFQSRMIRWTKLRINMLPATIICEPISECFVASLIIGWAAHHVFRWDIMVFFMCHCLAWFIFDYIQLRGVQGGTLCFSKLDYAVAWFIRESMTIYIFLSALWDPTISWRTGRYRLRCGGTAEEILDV
The experiment in a line: GCS enzyme inhibition assay (A549 cell lysate, NBD C6-ceramide, HPLC fluorescence). It counts as biochemical. The settings on record: inhibitory activity against GCS, 37° C., 90 minutes. The method in brief: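 Percent GCS activity was derived from the GlcCer share of Cer plus GlcCer areas, scaled from ibiglustat (0%) to DMSO (100%). Enzyme came from sonicated A549 lysate in 50 mM HEPES pH 7.3; 90 min incubation at 37° C, chloroform/methanol stop and extraction.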

Experiment [2] deals with GM1 production in Jurkat cells. Description: cells. Type of experiment: cell-based. The settings on record: Homo sapiens, Jurkat, 72 h.

Broadly, the IC50 is the point on the concentration scale where inhibition reaches its midpoint. Low readings indicate higher potency, high ones lower potency. Take `CC1(C)COc2cc(-c3ccc(F)cc3)c(F)cc2C1NC(=O)O[C@@H]1CN2CCC1CC2` (stereo partly drawn) [Example 331, (S)-quinuclidin-3-yl (6-fluoro-7-(4-fluorophenyl)-3,3-dimethylchroman-4-yl)carbamate]: the half-maximal inhibitory concentration (IC50) in experiment [1] amounted to 0.36 nM; in experiment [2], 3.7 nM.
The corresponding values for `CC1(C)COc2cc(-c3cccc(Cl)c3)c(F)cc2C1NC(=O)O[C@@H]1CN2CCC1CC2` (stereo partly drawn) [Example 332, (S)-quinuclidin-3-yl (6-fluoro-7-(3-chlorophenyl)-3,3-dimethylchroman-4-yl)carbamate] are 0.39 nM and 0.9 nM.
In the case of `CCc1cccc(-c2cc3c(cc2F)C(NC(=O)O[C@@H]2CN4CCC2CC4)C(C)(C)CO3)c1` (stereo partly drawn) [Example 333, (S)-quinuclidin-3-yl (7-(3-ethylphenyl)-6-fluoro-3,3-dimethylchroman-4-yl)carbamate], the half-maximal inhibitory concentration (IC50) in experiment [1] worked out at 0.45 nM; in experiment [2], 0.8 nM.
Take `CCc1ccc(-c2cc3c(cc2F)C(NC(=O)O[C@@H]2CN4CCC2CC4)C(C)(C)CO3)cc1` (stereo partly drawn) [Example 334, (S)-quinuclidin-3-yl (7-(4-ethylphenyl)-6-fluoro-3,3-dimethylchroman-4-yl)carbamate]: the half-inhibitory concentration (IC50) in experiment [1] turned out to be 0.33 nM; in experiment [2], 0.4 nM.
For `COc1cccc(-c2cc3c(cc2F)C(NC(=O)O[C@@H]2CN4CCC2CC4)C(C)(C)CO3)c1` (stereo partly drawn) [Example 335, (S)-quinuclidin-3-yl (6-fluoro-7-(3-methoxyphenyl)-3,3-dimethylchroman-4-yl)carbamate] the same measures were 0.35 nM and 2 nM.
Take `COc1ccc(-c2cc3c(cc2F)C(NC(=O)O[C@@H]2CN4CCC2CC4)C(C)(C)CO3)cc1` (stereo partly drawn) [Example 336, (S)-quinuclidin-3-yl (6-fluoro-7-(4-methoxyphenyl)-3,3-dimethylchroman-4-yl)carbamate]: the 50% inhibitory concentration (IC50) was 0.27 nM in experiment [1] and 3.5 nM in experiment [2].
Turning to `CCOc1ccc(-c2cc3c(cc2F)C(NC(=O)O[C@@H]2CN4CCC2CC4)C(C)(C)CO3)cc1` (stereo partly drawn) [Example 337, (S)-quinuclidin-3-yl (7-(4-ethoxyphenyl)-6-fluoro-3,3-dimethylchroman-4-yl)carbamate], the 50% inhibitory concentration (IC50) was 0.23 nM in experiment [1] and 1.2 nM in experiment [2].
Take `CC1(C)COc2cc(-c3ccsc3)c(F)cc2C1NC(=O)O[C@@H]1CN2CCC1CC2` (stereo partly drawn) [Example 338, (S)-quinuclidin-3-yl (6-fluoro-3,3-dimethyl-7-(thiophen-3-yl)chroman-4-yl)carbamate]: the IC50 in experiment [1] was 0.19 nM; in experiment [2], 3.3 nM.
With `CC(C)c1cccc(-c2cc3c(cc2F)C(NC(=O)O[C@@H]2CN4CCC2CC4)C(C)(C)CO3)c1` (stereo partly drawn) [Example 339, (S)-quinuclidin-3-yl (6-fluoro-7-(3-isopropylphenyl)-3,3-dimethylchroman-4-yl)carbamate], the IC50 in experiment [1] was determined as 0.61 nM; in experiment [2], 0.2 nM.
Take `COc1ccc(Cl)c(-c2cc3c(cc2F)C(NC(=O)O[C@@H]2CN4CCC2CC4)C(C)(C)CO3)c1` (stereo partly drawn) [Example 340, (S)-quinuclidin-3-yl (7-(2-chloro-5-methoxyphenyl)-6-fluoro-3,3-dimethylchroman-4-yl)carbamate]: the values for the IC50 in experiment [1] and in experiment [2] were 0.48 nM and 2.4 nM, respectively.
In the case of `COc1ccc(-c2cc3c(cc2F)C(NC(=O)O[C@@H]2CN4CCC2CC4)C(C)(C)CO3)c(F)c1` (stereo partly drawn) [Example 341, (S)-quinuclidin-3-yl (6-fluoro-7-(2-fluoro-4-methoxyphenyl)-3,3-dimethylchroman-4-yl)carbamate], the IC50 in experiment [1] was determined as 0.17 nM; in experiment [2], 4.1 nM.
For `COc1ccc(-c2cc3c(cc2F)C(NC(=O)O[C@@H]2CN4CCC2CC4)C(C)(C)CO3)c(C)c1` (stereo partly drawn) [Example 342, (S)-quinuclidin-3-yl (6-fluoro-7-(4-methoxy-2-methylphenyl)-3,3-dimethylchroman-4-yl)carbamate] the same measures were 0.45 nM and 3.5 nM.
For `CCCCc1ccc(-c2cc3c(cc2F)C(NC(=O)O[C@@H]2CN4CCC2CC4)C(C)(C)CO3)cc1` (stereo partly drawn) [Example 343, (S)-quinuclidin-3-yl (7-(4-butylphenyl)-6-fluoro-3,3-dimethylchroman-4-yl)carbamate], the half-maximal inhibitory concentration (IC50) in experiment [1] worked out at 0.12 nM; in experiment [2], 0.1 nM.
As to `CC(C)Oc1ccc(-c2cc3c(cc2F)C(NC(=O)O[C@@H]2CN4CCC2CC4)C(C)(C)CO3)cc1Cl` (stereo partly drawn) [Example 344, (S)-quinuclidin-3-yl (7-(3-chloro-4-isopropoxyphenyl)-6-fluoro-3,3-dimethylchroman-4-yl)carbamate], the IC50 in experiment [1] was found to be 0.58 nM; in experiment [2] it was 7.3 nM.
The corresponding values for `CC(C)(C)c1ccc(-c2cc3c(cc2F)C(NC(=O)O[C@@H]2CN4CCC2CC4)C(C)(C)CO3)cc1` (stereo partly drawn) [Example 345, (S)-quinuclidin-3-yl (7-(4-(tert-butyl)phenyl)-6-fluoro-3,3-dimethylchroman-4-yl)carbamate] are 0.37 nM and 1.6 nM.
The corresponding values for `COc1c(C)cc(-c2cc3c(cc2F)C(NC(=O)O[C@@H]2CN4CCC2CC4)C(C)(C)CO3)cc1C` (stereo partly drawn) [Example 346, (S)-quinuclidin-3-yl (6-fluoro-7-(4-methoxy-3,5-dimethylphenyl)-3,3-dimethylchroman-4-yl)carbamate] are 1.18 nM and 9.5 nM.
`CC(C)COc1ccc(-c2cc3c(cc2F)C(NC(=O)O[C@@H]2CN4CCC2CC4)C(C)(C)CO3)cc1` (stereo partly drawn) [Example 347, (S)-quinuclidin-3-yl (6-fluoro-7-(4-isobutoxyphenyl)-3,3-dimethylchroman-4-yl)carbamate]: the values for the IC50 in experiment [1] and in experiment [2] were 0.23 nM and 0.02 nM, respectively.
In the case of `CC(C)Oc1ccc(-c2cc3c(cc2F)C(NC(=O)O[C@@H]2CN4CCC2CC4)C(C)(C)CO3)cn1` (stereo partly drawn) [Example 348, (S)-quinuclidin-3-yl (6-fluoro-7-(6-isopropoxypyridin-3-yl)-3,3-dimethylchroman-4-yl)carbamate], the IC50 was 0.24 nM in experiment [1] and 0.5 nM in experiment [2].
`COc1cc2c(cc1-c1cccc(F)c1)OCC(C)(C)C2NC(=O)O[C@@H]1CN2CCC1CC2` (stereo partly drawn) [Example 349, (S)-quinuclidin-3-yl (7-(3-fluorophenyl)-6-methoxy-3,3-dimethylchroman-4-yl)carbamate]: the half-maximal inhibitory concentration (IC50) was found to be 0.32 nM in experiment [1] and 3.2 nM in experiment [2].
For `COc1cc2c(cc1-c1ccc(F)cc1)OCC(C)(C)C2NC(=O)O[C@@H]1CN2CCC1CC2` (stereo partly drawn) [Example 350, (S)-quinuclidin-3-yl (7-(4-fluorophenyl)-6-methoxy-3,3-dimethylchroman-4-yl)carbamate], the IC50 turned out to be 0.47 nM in experiment [1] and 7.5 nM in experiment [2].
As for `COc1cc2c(cc1-c1cccc(Cl)c1)OCC(C)(C)C2NC(=O)O[C@@H]1CN2CCC1CC2` (stereo partly drawn) [Example 351, (S)-quinuclidin-3-yl (7-(3-chlorophenyl)-6-methoxy-3,3-dimethylchroman-4-yl)carbamate], the IC50 in experiment [1] came out at 0.45 nM; in experiment [2] it was 1.7 nM.
Turning to `CCc1cccc(-c2cc3c(cc2OC)C(NC(=O)O[C@@H]2CN4CCC2CC4)C(C)(C)CO3)c1` (stereo partly drawn) [Example 352, (S)-quinuclidin-3-yl (7-(3-ethylphenyl)-6-methoxy-3,3-dimethylchroman-4-yl)carbamate], the IC50 in experiment [1] is 0.38 nM; in experiment [2], 2 nM.
As for `CCc1ccc(-c2cc3c(cc2OC)C(NC(=O)O[C@@H]2CN4CCC2CC4)C(C)(C)CO3)cc1` (stereo partly drawn) [Example 353, (S)-quinuclidin-3-yl (7-(4-ethylphenyl)-6-methoxy-3,3-dimethylchroman-4-yl)carbamate], the IC50 amounted to 0.33 nM in experiment [1] and 2.3 nM in experiment [2].
Take `COc1cccc(-c2cc3c(cc2OC)C(NC(=O)O[C@@H]2CN4CCC2CC4)C(C)(C)CO3)c1` (stereo partly drawn) [Example 354, (S)-quinuclidin-3-yl (6-methoxy-7-(3-methoxyphenyl)-3,3-dimethylchroman-4-yl)carbamate]: the figures for the IC50 in experiment [1] and in experiment [2] were 0.63 nM and 3.1 nM, respectively.
As for `COc1ccc(-c2cc3c(cc2OC)C(NC(=O)O[C@@H]2CN4CCC2CC4)C(C)(C)CO3)cc1` (stereo partly drawn) [Example 355, (S)-quinuclidin-3-yl (6-methoxy-7-(4-methoxyphenyl)-3,3-dimethylchroman-4-yl)carbamate], the figures for the half-maximal inhibitory concentration (IC50) in experiment [1] and in experiment [2] were 0.58 nM and 5.8 nM, respectively.
The corresponding values for `CCOc1ccc(-c2cc3c(cc2OC)C(NC(=O)O[C@@H]2CN4CCC2CC4)C(C)(C)CO3)cc1` (stereo partly drawn) [Example 356, (S)-quinuclidin-3-yl (7-(4-ethoxyphenyl)-6-methoxy-3,3-dimethylchroman-4-yl)carbamate] are 0.48 nM and 3.4 nM.
As for `COc1cc2c(cc1-c1ccsc1)OCC(C)(C)C2NC(=O)O[C@@H]1CN2CCC1CC2` (stereo partly drawn) [Example 357, (S)-quinuclidin-3-yl (6-methoxy-3,3-dimethyl-7-(thiophen-3-yl)chroman-4-yl)carbamate], the figures for the IC50 in experiment [1] and in experiment [2] were 0.45 nM and 4 nM, respectively.
Regarding `COc1cc2c(cc1-c1cccc(C(C)C)c1)OCC(C)(C)C2NC(=O)O[C@@H]1CN2CCC1CC2` (stereo partly drawn) [Example 358, (S)-quinuclidin-3-yl (7-(3-isopropylphenyl)-6-methoxy-3,3-dimethylchroman-4-yl)carbamate], the values for the IC50 in experiment [1] and in experiment [2] were 0.61 nM and 2 nM, respectively.
